SMILES strings stand for the structures. Active and inactive are the calls of the source. The rule behind the calls is not given here.

Consider seven compounds from ChEMBL document CHEMBL4813924, “Isolation and Pharmacological Characterization of Six Opioidergic Picralima nitida Alkaloids” (J Nat Prod, 2021).

The subject of test [1] is Mus musculus. Briefly: Antinociceptive activity against C57Bl/6N mouse model of thermal-induced nociception at 6 mg/kg, sc measured at 30 mins by tail-flick test. The class given is functional, organism-based. Background: In hot-plate and tail-flick tests a longer latency is read as antinociception.
In test [2] the test system is Mus musculus. Description: Antinociceptive activity against C57Bl/6N mouse model of thermal-induced nociception at 6 mg/kg, sc measured at 30 mins by hot-plate test. The class given is functional, organism-based.
In test [3] the target is T1, Kappa-type opioid receptor (Homo sapiens, UniProt P41145). Description: Displacement of [3H]-U69593 from human kappa opioid receptor expressed in U2OS cells by radioligand binding assay. Type of test: cell-based.
T1 sequence (P41145 whole entry): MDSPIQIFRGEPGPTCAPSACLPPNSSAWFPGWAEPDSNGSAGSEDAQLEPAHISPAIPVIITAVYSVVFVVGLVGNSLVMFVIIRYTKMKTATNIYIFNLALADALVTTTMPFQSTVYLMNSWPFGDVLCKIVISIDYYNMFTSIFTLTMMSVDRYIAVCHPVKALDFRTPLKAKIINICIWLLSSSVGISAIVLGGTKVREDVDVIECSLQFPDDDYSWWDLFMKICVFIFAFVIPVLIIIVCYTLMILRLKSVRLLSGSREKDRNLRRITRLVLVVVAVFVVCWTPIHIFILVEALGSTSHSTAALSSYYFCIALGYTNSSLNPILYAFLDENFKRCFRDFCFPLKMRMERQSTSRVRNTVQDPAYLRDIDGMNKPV
Test [4] has as its target Mu-type opioid receptor (Mus musculus) (UniProt P42866). Description: Agonist activity at mouse HA-tagged mu opioid receptor expressed in HEK293 cells assessed as inhibition of forskolin-induced cAMP production preincubated for 20 mins followed by forskolin stimulation and measured after 15 mins by Glo-sensor reagent based assay relative to DAMGO. The note with it: filed as agonist. The arrangement: scale not given: the % may be the effect or the level left. Type of test: functional, cell-based. Background: Changes in cAMP serve as a functional read-out for many G protein-coupled receptors.

The target of test [5] is T1, Kappa-type opioid receptor. Briefly: Agonist activity at human kappa opioid receptor expressed in U2OS cells assessed as beta-arrestin2 recruitment incubated for 90 mins by PathHunter assay. Type of test: functional, cell-based. Background: Activated receptors often draw arrestin, which recruitment assays turn into a signal.
In test [6] the target is T2, Mu-type opioid receptor (Homo sapiens, UniProt P35372). Description: Displacement of [3H]-DAMGO from human mu opioid receptor expressed in CHO-K1 cells by radioligand binding assay. Type of test: cell-based.
T2 sequence (P35372 whole entry): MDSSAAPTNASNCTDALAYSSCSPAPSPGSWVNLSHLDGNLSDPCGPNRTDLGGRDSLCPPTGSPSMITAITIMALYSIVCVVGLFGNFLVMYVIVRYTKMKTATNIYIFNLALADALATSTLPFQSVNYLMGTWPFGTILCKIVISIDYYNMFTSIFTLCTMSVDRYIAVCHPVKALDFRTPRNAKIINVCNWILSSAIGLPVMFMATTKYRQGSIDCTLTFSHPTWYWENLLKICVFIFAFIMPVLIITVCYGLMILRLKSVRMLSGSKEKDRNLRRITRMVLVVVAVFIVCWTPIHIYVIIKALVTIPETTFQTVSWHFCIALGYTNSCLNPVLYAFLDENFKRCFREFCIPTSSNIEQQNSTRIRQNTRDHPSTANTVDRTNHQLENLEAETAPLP
Test [7] deals with T3, Delta-type opioid receptor (Homo sapiens, UniProt P41143). Briefly: Displacement of [3H]-DPDPE from human delta opioid receptor expressed in CHO-K1 cells by radioligand binding assay. The class given is cell-based.
T3 sequence (P41143 whole entry): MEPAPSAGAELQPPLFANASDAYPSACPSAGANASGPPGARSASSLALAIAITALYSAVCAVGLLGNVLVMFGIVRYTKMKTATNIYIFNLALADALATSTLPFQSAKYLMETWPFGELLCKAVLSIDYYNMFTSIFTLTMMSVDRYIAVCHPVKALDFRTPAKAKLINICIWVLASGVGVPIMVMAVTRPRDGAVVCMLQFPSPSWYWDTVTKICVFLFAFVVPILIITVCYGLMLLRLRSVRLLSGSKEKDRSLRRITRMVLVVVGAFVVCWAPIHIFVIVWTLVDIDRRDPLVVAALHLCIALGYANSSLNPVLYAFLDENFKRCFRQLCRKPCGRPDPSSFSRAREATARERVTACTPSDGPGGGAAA
The target in test [8] is Delta-type opioid receptor (Mus musculus, UniProt P32300). Briefly: Agonist activity at mouse FLAG-tagged delta opioid receptor expressed in HEK293 cells assessed as inhibition of forskolin-induced cAMP production preincubated for 20 mins followed by forskolin stimulation and measured after 15 mins by Glo-sensor reagent based assay. The class given is functional, cell-based.
Delta-type opioid receptor (Mus musculus, UniProt P32300), sequence (P32300 whole entry): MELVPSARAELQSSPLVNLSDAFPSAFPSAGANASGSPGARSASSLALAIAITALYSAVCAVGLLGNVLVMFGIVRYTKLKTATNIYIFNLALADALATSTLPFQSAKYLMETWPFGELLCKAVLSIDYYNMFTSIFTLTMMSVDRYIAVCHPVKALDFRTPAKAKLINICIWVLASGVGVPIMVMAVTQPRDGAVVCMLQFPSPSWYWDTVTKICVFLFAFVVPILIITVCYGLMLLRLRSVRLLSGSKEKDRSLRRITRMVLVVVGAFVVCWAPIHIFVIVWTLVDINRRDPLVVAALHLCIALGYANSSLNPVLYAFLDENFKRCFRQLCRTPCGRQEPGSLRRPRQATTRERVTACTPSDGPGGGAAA

Test [9] addresses Delta-type opioid receptor (Mus musculus) (UniProt P32300). Description: Agonist activity at mouse FLAG-tagged delta opioid receptor expressed in HEK293 cells assessed as inhibition of forskolin-induced cAMP production preincubated for 20 mins followed by forskolin stimulation and measured after 15 mins by Glo-sensor reagent based assay relative to Leu-Enk. The note with it: filed as agonist. The arrangement: scale not given: the % may be the effect or the level left. Type of test: functional, cell-based.

The target in test [10] is T1, Kappa-type opioid receptor. Briefly: Displacement of [3H]-U69593 from kappa opioid receptor (unknown origin) expressed in HEK cells at 10 uM. The class given is cell-based. The note with it: filed as agonist.
Test [11] addresses T2, Mu-type opioid receptor. Briefly: Displacement of [3H]-DAMGO from mu opioid receptor (unknown origin) expressed in HEK cells at 10 uM. The class given is cell-based.
In test [12] the target is Histamine H3 receptor (Homo sapiens) (UniProt Q9Y5N1). Description: Displacement of [3H]-alpha-methylhistamine from histamine H3 receptor (unknown origin) expressed in Flp-In-293 cells at 10 uM relative to control. The class given is cell-based.
Histamine H3 receptor (Homo sapiens), sequence (Q9Y5N1 whole entry): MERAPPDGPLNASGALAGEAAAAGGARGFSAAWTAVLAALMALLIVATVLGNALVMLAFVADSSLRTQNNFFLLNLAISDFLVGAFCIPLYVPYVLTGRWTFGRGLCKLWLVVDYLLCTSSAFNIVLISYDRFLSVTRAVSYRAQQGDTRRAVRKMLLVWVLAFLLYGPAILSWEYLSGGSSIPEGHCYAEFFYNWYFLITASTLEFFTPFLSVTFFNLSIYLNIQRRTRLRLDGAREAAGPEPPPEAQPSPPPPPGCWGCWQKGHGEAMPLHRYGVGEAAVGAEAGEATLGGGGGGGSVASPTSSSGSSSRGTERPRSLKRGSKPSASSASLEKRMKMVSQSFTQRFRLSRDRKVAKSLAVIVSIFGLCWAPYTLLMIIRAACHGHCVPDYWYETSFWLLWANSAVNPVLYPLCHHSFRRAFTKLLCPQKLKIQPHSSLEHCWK
The target in test [13] is T3, Delta-type opioid receptor. Description: Displacement of [3H]-DADLE from delta opioid receptor (unknown origin) expressed in HEK cells at 10 uM. Type of test: cell-based. The note with it: filed as agonist.
For test [14], the target named is T4, D(1B) dopamine receptor (Homo sapiens, UniProt P21918). Description: Displacement of [3H]-SCH23390 from dopamine D5 receptor (unknown origin) expressed in HEK-293T cells at 10 uM. The class given is cell-based.
T4 sequence (P21918 whole entry): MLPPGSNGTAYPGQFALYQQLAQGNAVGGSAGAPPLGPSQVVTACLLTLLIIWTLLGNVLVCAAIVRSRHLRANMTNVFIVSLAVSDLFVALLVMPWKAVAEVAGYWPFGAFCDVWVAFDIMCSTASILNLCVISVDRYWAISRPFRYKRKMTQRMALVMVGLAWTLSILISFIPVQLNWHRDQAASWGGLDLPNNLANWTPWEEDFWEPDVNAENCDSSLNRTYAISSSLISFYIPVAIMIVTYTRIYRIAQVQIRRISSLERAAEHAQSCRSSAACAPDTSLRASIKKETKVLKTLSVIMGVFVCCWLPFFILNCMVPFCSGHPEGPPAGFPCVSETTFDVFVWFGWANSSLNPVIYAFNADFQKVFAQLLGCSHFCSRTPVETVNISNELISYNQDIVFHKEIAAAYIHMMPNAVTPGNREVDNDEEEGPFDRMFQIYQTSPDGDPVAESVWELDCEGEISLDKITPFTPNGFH
In test [15] the target is Kappa-type opioid receptor (Mus musculus) (UniProt P33534). Briefly: Agonist activity at mouse FLAG-tagged kappa opioid receptor expressed in HEK293 cells assessed as inhibition of forskolin-induced cAMP production preincubated for 20 mins followed by forskolin stimulation and measured after 15 mins by Glo-sensor reagent based assay relative to U50488. Type of test: functional, cell-based. As to conditions: filed as agonist. The arrangement: scale not given: the % may be the effect or the level left.
Kappa-type opioid receptor (Mus musculus), sequence (P33534 whole entry): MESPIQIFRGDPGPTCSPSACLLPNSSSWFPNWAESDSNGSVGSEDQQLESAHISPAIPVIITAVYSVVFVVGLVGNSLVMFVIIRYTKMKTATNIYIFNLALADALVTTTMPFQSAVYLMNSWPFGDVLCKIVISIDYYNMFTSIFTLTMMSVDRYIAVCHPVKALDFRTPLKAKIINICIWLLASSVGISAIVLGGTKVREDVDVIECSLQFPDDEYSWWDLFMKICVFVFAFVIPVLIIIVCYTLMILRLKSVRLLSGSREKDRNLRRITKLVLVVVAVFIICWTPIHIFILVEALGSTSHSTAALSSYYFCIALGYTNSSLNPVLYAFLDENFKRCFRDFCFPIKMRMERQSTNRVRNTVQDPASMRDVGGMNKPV

The target in test [16] is Mu-type opioid receptor (Mus musculus, UniProt P42866). Description: Agonist activity at mouse HA-tagged mu opioid receptor expressed in HEK293 cells assessed as inhibition of forskolin-induced cAMP production preincubated for 20 mins followed by forskolin stimulation and measured after 15 mins by Glo-sensor reagent based assay. Type of test: functional, cell-based.
Mu-type opioid receptor (Mus musculus, UniProt P42866), sequence (P42866 whole entry): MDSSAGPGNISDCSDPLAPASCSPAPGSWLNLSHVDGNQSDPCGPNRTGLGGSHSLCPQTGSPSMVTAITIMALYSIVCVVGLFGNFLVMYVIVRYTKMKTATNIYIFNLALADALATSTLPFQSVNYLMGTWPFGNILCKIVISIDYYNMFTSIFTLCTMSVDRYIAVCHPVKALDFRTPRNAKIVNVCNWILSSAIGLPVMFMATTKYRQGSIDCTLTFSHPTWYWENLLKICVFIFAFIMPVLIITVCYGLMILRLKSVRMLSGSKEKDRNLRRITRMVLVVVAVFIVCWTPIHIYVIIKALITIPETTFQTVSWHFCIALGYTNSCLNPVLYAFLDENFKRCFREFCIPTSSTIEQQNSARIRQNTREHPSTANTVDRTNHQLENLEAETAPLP
Test [17] addresses T4, D(1B) dopamine receptor. Briefly: Displacement of [3H]-SCH23390 from dopamine D5 receptor (unknown origin) expressed in HEK-293T cells assessed as inhibition constant. The class given is cell-based.
Test [18] concerns the target T1, Kappa-type opioid receptor. Briefly: Agonist activity at human kappa opioid receptor expressed in U2OS cells assessed as beta-arrestin2 recruitment incubated for 90 mins by PathHunter assay relative to U50488. The class given is functional, cell-based.
The target of test [19] is Kappa-type opioid receptor (Mus musculus, UniProt P33534). Description: Agonist activity at mouse FLAG-tagged kappa opioid receptor expressed in HEK293 cells assessed as inhibition of forskolin-induced cAMP production preincubated for 20 mins followed by forskolin stimulation and measured after 15 mins by Glo-sensor reagent based assay. The class given is functional, cell-based.
Kappa-type opioid receptor (Mus musculus, UniProt P33534), sequence (P33534 whole entry): as the sequence (P33534 whole entry) above

Test [20] addresses Sodium-dependent serotonin transporter (Homo sapiens) (UniProt P31645). Briefly: Displacement of [3H]-citalopram from SERT (unknown origin) expressed in HEK cells at 10 uM relative to control. The class given is cell-based.
Test [21] concerns Mus musculus. Description: Antinociceptive activity against C57Bl/6N mouse model of thermal-induced nociception at 10 mg/kg, sc measured at 50 mins by tail-flick test. The class given is functional, organism-based.
Test [22] concerns Mus musculus. Briefly: Antinociceptive activity against C57Bl/6N mouse model of thermal-induced nociception at 30 mg/kg, sc measured at 30 mins by tail-flick test. The class given is functional, organism-based.
The subject of test [23] is Mus musculus. Briefly: Antinociceptive activity against C57Bl/6N mouse model of thermal-induced nociception at 3 mg/kg, sc measured at 110 mins by hot-plate test. The class given is functional, organism-based.

Mu-type opioid receptor (Mus musculus), sequence (P42866 whole entry): as the sequence (P42866 whole entry) above
Delta-type opioid receptor (Mus musculus), sequence (P32300 whole entry): as the sequence (P32300 whole entry) above
Sodium-dependent serotonin transporter (Homo sapiens), sequence (P31645 whole entry, looked up): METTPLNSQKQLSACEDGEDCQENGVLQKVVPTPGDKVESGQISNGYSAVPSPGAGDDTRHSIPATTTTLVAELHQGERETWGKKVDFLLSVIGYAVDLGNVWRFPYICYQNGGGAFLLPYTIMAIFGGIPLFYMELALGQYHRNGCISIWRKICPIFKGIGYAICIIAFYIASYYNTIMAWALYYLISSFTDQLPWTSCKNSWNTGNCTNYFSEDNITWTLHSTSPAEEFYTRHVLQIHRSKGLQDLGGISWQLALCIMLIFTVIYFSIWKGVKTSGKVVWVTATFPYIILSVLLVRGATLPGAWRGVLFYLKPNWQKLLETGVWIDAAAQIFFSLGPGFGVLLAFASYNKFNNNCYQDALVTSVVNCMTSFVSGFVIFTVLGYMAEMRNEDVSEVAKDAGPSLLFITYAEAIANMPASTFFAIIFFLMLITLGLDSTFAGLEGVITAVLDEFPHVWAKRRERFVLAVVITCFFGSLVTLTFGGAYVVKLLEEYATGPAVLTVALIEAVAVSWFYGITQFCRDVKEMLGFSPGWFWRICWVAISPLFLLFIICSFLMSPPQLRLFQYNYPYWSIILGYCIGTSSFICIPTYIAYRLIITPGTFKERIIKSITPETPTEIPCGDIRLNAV

As to `CN1CC[C@]23c4c5ccc(O)c4O[C@H]2[C@@H](O)C=C[C@H]3[C@H]1C5`, the outcome in [1] and in test [2] was Active.
What is called Ki is a dissociation constant, usually derived from enzyme kinetics or from competition with a known ligand. Broadly, the EC50 is the midpoint of the concentration-response curve. Broadly, the inhibition is how much of the control response was suppressed. For `C/C=C1/CN2CC[C@]34C(=C(C(=O)OC)[C@H]1C[C@H]23)Nc1ccccc14` [AKUAMMICINE], the Ki in test [3] was 0.089 µM; in test [6] it was 3.31 µM; in [7], 23.2 µM; in [17] it was more than 10 µM. The Activity in [4] came out at 45%; in test [9], 60%; in [15] it was 84%; in [18] (filed as agonist) it was 50%. Moreover, the EC50 in test [5] was 39.8 µM. Moreover, the IC50 is 12.4 µM in test [8] (read-out: IC50), 12.6 µM in [8] (read-out: pIC50 (converted)), 8.24 µM in test [16] and 0.24 µM in test [19]. The inhibition entry in test [10], in test [11] (filed as agonist), in [13] and in test [14] was “Active” each time. Moreover, the inhibition in test [12] and in test [20] was less than 60% in each case.
Turning to `C/C=C1/CN2[C@H]3Cc4c([nH]c5ccccc45)[C@@H]2C[C@@H]1[C@]3(CO)C(=O)OC`, the Ki in [3] came out at 14.2 µM; in [6] it was 0.32 µM; in [7], 15 µM. Also, the Activity in test [4] stood at 94%; in test [9], 90%. Moreover, the result in test [21] and in [22] was Active. Further, the IC50 in test [8] (read-out: IC50) was 15.4 µM; in test [16] it was 3.14 µM. The result in test [23] was inactive.
In the case of `C/C=C1/CN2[C@@H]3C[C@@]45c6ccccc6N[C@]4(O3)[C@@H]2C[C@@H]1[C@@]5(COC(C)=O)C(=O)OC`, the inhibition constant Ki in test [3] is 2.38 µM; in test [6], 132 µM; in test [7], 98.8 µM; in test [17] it was more than 10 µM. For the same compound, the inhibition result in test [10], in [13] and in test [14] was “Active” each time. The inhibition entry in test [11] was “inactive”. For the same compound, the inhibition in test [12] and in [20] was less than 60% throughout. Besides, the Activity in [15] was 92%. Moreover, the results for the IC50 in test [16] and in test [19] were 45 µM and 1.97 µM, respectively.
Regarding `C/C=C1/CN2CC[C@@]34c5cc(O)ccc5N(C)[C@]35OC[C@@]4(C(=O)OC)[C@H]1C[C@H]25`, the figures for the inhibition constant Ki in test [7] and in test [17] were 10.4 µM and more than 10 µM, respectively. Moreover, the results for the IC50 in test [8] (read-out: IC50) and in [19] were 20.3 µM and 0.073 µM, respectively. The inhibition in test [12] and in test [20] was less than 60% in each case. Besides, in [14], the inhibition entry is “Active”.
For `C/C=C1/CN2CC[C@]34C(=Nc5ccccc53)[C@@H]2C[C@@H]1[C@@]4(COC(C)=O)C(=O)OC`, the inhibition constant Ki was 1.11 µM in [3], 30.7 µM in [6], 60.3 µM in [7] and more than 10 µM in test [17]. Also, the Activity in [4] came out at 50%; in test [9], 90%; in test [15], 92%; in [18], 30%. Also, the IC50 was 24.4 µM in test [8] (read-out: IC50), 18.7 µM in [16] and 2.71 µM in test [19]. Moreover, the inhibition entry in test [10], in [13] and in test [14] was “Active” throughout. In addition, the inhibition result in test [11] is “inactive”. In addition, the inhibition in [12] and in test [20] was less than 60% each time.
Take `C/C=C1/CN2CC[C@@]34c5ccccc5N(C)[C@]35OC[C@@]4(C(=O)OC)[C@H]1C[C@H]25`: the inhibition constant Ki in [7] is 8.37 µM; in [17], more than 10 µM. Moreover, the IC50 in test [8] (read-out: IC50) turned out to be 95.6 µM; in test [19], 6.46 µM. The inhibition in test [12] and in test [20] was less than 60% throughout. Further, the inhibition entry in test [14] was “Active”.
